Measured values as given in US20210251963A1, “UREA DERIVATIVES FOR USE IN THE TREATMENT OF SUBJECTS WITH ELEVATED EXPRESSION AND/OR ACTIVITY OF SRPK1” (Scandion Oncology A/S, priority 2018, published 2021).

How the values were obtained:
Experiment in all cases: Premier Screen kinase activity screening (33P ATP filter binding)
Type in all cases: biochemical
FGF-R1 = biological target: T1, FGF-R1 (Homo sapiens, UniProt P11362); settings: 10 μM SCO-101, mean of assay duplicates, read-out: Kinase activity (percentage of DMSO control)
T1 construct: purchased MRC in Dundee (Premier Screen service)
Source text: (§1) The kinase activity screening was done at MRC in Dundee. The screen was a so-called “Premier Screen” with 140 kinases. More specific information can be found here: http://www.kinase-screen.mrc.ac.uk/services/premier-screen
(§2) The method is based on a radioactive filter binding assay using 33P ATP (Hastie, et al 2006. Nat Protoc. 2006; 1(2):968-71; Bain, et al 2007. Biochem J. 2007 Dec. 15; 408(3):297-315). This method is sensitive, accurate and provides a direct measure of kinase enzyme activity. A concentration of 10 μM SCO-101 was used.
(§3) In the table below, the data is portrayed as the mean percentage activity of assay duplicates and a standard deviation. These percentage activities were calculated in comparison to DMSO controls. 10 μM SCO-101 reduced the activity of SRPK1 to 6% of the DMSO control.

TSSK1 = biological target: T2, TSSK1 (Homo sapiens, UniProt Q9BXA7); settings: 10 μM SCO-101, mean of assay duplicates, read-out: Kinase activity (percentage of DMSO control)
T2 construct: MRC in Dundee (screening service)
T2 sequence (Q9BXA7 whole entry, species assumed): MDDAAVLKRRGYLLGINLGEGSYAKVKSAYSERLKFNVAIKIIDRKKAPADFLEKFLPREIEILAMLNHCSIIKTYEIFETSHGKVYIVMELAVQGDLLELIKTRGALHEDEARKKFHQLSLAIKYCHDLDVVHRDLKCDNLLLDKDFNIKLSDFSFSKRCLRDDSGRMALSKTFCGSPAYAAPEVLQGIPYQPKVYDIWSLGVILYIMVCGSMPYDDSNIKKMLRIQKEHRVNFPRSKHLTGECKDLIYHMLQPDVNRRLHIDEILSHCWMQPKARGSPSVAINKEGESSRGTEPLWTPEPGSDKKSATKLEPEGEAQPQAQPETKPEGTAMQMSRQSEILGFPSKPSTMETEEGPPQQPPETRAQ
Source text: as §1, §2, §3

GSK3b = biological target: T3, GSK3b (Homo sapiens, UniProt P49841); settings: 10 μM SCO-101, mean of assay duplicates, read-out: Kinase activity (percentage of DMSO control)
T3 construct: MRC Dundee (screening service)
T3 sequence (P49841 whole entry, species assumed): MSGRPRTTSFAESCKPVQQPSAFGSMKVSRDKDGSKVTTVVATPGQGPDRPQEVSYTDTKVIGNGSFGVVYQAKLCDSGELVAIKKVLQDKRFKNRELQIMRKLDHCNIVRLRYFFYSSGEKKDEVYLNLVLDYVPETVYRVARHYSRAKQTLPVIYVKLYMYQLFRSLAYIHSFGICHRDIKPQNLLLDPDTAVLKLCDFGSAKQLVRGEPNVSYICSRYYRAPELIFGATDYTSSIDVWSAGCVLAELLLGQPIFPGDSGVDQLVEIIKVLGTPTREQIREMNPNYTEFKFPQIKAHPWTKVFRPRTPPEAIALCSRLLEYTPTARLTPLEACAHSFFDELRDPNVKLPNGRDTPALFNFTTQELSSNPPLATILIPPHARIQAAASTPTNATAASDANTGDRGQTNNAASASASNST
Source text: as §1, §2, §3

MAP4K5 = biological target: T4, MAP4K5 (Homo sapiens, UniProt Q9Y4K4); settings: 10 μM SCO-101, mean of assay duplicates, read-out: Kinase activity (percentage of DMSO control)
T4 construct: purchased MRC Dundee, Premier Screen (contract screening service)
Source text: as §1, §2, §3

EPH-A4 = biological target: T5, EPH-A4 (Homo sapiens, UniProt P54764); settings: 10 μM SCO-101, mean of assay duplicates, read-out: Kinase activity (percentage of DMSO control)
T5 construct: MRC Dundee (screening service)
T5 sequence (P54764 20-986, species assumed): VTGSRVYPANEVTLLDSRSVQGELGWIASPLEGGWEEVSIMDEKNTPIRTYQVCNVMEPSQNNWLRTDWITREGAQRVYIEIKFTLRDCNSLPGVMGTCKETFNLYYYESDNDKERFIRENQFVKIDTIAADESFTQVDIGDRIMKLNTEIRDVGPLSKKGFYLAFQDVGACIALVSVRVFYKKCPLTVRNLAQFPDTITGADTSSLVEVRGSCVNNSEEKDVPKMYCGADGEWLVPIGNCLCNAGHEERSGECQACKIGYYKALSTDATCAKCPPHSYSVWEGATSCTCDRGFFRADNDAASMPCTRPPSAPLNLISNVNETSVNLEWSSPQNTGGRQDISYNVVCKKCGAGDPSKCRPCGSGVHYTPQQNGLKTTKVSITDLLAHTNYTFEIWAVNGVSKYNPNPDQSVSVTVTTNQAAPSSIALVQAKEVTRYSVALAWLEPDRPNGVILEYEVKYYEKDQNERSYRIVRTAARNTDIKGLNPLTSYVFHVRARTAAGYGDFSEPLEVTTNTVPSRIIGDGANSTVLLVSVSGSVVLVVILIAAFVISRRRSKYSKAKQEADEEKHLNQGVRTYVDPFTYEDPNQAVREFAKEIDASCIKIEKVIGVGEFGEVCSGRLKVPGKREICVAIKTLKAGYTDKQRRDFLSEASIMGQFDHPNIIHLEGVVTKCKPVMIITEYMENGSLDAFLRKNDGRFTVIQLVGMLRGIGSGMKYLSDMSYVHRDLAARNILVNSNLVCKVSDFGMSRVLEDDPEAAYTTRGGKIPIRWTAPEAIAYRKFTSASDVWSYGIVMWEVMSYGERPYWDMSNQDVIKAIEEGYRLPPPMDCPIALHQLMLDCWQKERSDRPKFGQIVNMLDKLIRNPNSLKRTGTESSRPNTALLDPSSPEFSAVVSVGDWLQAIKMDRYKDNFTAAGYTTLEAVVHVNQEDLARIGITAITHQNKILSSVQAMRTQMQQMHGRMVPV
Source text: as §1, §2, §3

RSK2 = biological target: T6, RSK2 (Homo sapiens, UniProt P51812); settings: 10 μM SCO-101, mean of assay duplicates, read-out: Kinase activity (percentage of DMSO control)
T6 construct: purchased MRC in Dundee (Premier Screen service)
Source text: as §1, §2, §3

ULK1 = ULK1 (Homo sapiens, UniProt O75385); settings: 10 μM SCO-101, mean of assay duplicates, read-out: Kinase activity (percentage of DMSO control)
Sequence of ULK1 (O75385 whole entry, species assumed): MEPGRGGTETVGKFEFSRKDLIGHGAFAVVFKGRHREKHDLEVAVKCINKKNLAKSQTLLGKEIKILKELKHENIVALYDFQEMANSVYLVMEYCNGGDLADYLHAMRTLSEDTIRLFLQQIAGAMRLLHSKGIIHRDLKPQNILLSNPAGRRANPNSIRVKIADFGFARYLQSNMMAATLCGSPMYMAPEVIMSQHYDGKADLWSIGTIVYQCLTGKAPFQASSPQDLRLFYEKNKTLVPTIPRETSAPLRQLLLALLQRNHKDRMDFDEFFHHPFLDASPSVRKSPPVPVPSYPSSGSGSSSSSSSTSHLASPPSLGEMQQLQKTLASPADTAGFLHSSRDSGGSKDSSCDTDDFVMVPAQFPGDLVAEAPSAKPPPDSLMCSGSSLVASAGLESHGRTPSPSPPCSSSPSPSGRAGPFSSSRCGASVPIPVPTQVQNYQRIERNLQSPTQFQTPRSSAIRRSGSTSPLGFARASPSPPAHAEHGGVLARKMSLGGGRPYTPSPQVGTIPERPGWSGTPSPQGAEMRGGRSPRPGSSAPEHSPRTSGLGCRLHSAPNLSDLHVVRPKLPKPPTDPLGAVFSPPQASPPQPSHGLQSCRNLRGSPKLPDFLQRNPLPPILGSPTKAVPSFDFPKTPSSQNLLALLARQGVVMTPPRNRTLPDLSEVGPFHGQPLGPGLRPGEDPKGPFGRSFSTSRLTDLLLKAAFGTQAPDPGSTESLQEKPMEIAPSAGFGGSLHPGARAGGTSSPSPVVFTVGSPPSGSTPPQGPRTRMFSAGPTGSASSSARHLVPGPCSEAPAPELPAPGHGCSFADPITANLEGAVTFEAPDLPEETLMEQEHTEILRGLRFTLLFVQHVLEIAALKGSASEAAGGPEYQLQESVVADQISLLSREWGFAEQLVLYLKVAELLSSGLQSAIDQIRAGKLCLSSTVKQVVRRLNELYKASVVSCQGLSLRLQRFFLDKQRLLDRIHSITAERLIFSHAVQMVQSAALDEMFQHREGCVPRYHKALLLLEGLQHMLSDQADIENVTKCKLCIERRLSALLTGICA
Source text: as §1, §2, §3

p38g MAPK = biological target: T7, p38g MAPK (Homo sapiens, UniProt P53778); settings: 10 μM SCO-101, mean of assay duplicates, read-out: Kinase activity (percentage of DMSO control)
T7 construct: purchased MRC Dundee, Premier Screen (contract screening service)
Source text: as §1, §2, §3

TLK1 = TLK1 (Homo sapiens, UniProt Q9UKI8); settings: 10 μM SCO-101, mean of assay duplicates, read-out: Kinase activity (percentage of DMSO control)
Source text: as §1, §2, §3

EPH-B3 = EPH-B3 (Homo sapiens, UniProt P54753); settings: 10 μM SCO-101, mean of assay duplicates, read-out: Kinase activity (percentage of DMSO control)
Source text: as §1, §2, §3

MST3 = biological target: T8, MST3 (Homo sapiens, UniProt Q9Y6E0); settings: 10 μM SCO-101, mean of assay duplicates, read-out: Kinase activity (percentage of DMSO control)
T8 construct: purchased MRC in Dundee (Premier Screen service)
Source text: as §1, §2, §3

GCK = biological target: T9, GCK (Homo sapiens, UniProt Q12851); settings: 10 μM SCO-101, mean of assay duplicates, read-out: Kinase activity (percentage of DMSO control)
T9 construct: MRC in Dundee (screening service)
T9 sequence (Q12851 whole entry): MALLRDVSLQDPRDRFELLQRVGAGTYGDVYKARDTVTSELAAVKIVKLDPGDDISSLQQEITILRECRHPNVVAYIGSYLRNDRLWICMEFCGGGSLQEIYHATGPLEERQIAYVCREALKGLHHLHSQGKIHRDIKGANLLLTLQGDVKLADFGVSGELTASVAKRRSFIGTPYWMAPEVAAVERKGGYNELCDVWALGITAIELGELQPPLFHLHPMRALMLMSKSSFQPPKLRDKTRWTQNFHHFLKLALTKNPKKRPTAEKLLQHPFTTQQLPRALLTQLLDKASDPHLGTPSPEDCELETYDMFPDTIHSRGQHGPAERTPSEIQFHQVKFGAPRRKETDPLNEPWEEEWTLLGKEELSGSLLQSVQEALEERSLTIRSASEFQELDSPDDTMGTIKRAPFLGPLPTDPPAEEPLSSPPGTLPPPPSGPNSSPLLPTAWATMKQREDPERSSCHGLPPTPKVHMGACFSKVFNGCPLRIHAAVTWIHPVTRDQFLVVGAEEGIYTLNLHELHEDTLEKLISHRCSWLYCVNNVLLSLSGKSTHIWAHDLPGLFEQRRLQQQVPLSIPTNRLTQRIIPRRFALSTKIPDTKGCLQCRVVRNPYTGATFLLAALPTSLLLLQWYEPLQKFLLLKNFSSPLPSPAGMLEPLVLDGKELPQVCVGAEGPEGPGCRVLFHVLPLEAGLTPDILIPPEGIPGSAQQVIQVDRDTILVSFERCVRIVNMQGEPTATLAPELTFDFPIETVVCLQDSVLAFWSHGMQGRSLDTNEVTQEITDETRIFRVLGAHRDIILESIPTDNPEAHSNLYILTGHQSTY
Source text: as §1, §2, §3

EIF2AK3 = biological target: T10, EIF2AK3 (Homo sapiens, UniProt Q9NZJ5); settings: 10 μM SCO-101, mean of assay duplicates, read-out: Kinase activity (percentage of DMSO control)
T10 construct: MRC Dundee (screening service)
Source text: as §1, §2, §3

EPH-B1 = biological target: T11, EPH-B1 (Homo sapiens, UniProt P54762); settings: 10 μM SCO-101, mean of assay duplicates, read-out: Kinase activity (percentage of DMSO control)
T11 construct: purchased MRC in Dundee (Premier Screen service)
Source text: as §1, §2, §3

CDK9-Cyclin T1 = biological target: T12, CDK9-Cyclin T1 (Homo sapiens, UniProt P50750); settings: 10 μM SCO-101, mean of assay duplicates, read-out: Kinase activity (percentage of DMSO control)
T12 construct: purchased MRC Dundee, Premier Screen (contract screening service)
Source text: as §1, §2, §3

BTK = biological target: T13, BTK (Homo sapiens, UniProt Q06187); settings: 10 μM SCO-101, mean of assay duplicates, read-out: Kinase activity (percentage of DMSO control)
T13 construct: MRC in Dundee (screening service)
Source text: as §1, §2, §3

MARK4 = biological target: T14, MARK4 (Homo sapiens, UniProt Q96L34); settings: 10 μM SCO-101, mean of assay duplicates, read-out: Kinase activity (percentage of DMSO control)
T14 construct: MRC in Dundee (screening service)
Source text: as §1, §2, §3

ZAP70 = biological target: T15, ZAP70 (Homo sapiens, UniProt P43403); settings: 10 μM SCO-101, mean of assay duplicates, read-out: Kinase activity (percentage of DMSO control)
T15 construct: MRC Dundee (screening service)
Source text: as §1, §2, §3

MKK2 = biological target: T16, MKK2 (Homo sapiens, UniProt P36507); settings: 10 μM SCO-101, mean of assay duplicates, read-out: Kinase activity (percentage of DMSO control)
T16 construct: MRC in Dundee (screening service)
Source text: as §1, §2, §3

Aurora A = biological target: T17, Aurora A (Homo sapiens, UniProt O14965); settings: 10 μM SCO-101, mean of assay duplicates, read-out: Kinase activity (percentage of DMSO control)
T17 construct: MRC in Dundee (screening service)
Source text: as §1, §2, §3

TAK1 = biological target: T18, TAK1 (Homo sapiens, UniProt O43318); settings: 10 μM SCO-101, mean of assay duplicates, read-out: Kinase activity (percentage of DMSO control)
T18 construct: purchased MRC Dundee, Premier Screen (contract screening service)
Source text: as §1, §2, §3

ULK2 = biological target: T19, ULK2 (Homo sapiens, UniProt Q8IYT8); settings: 10 μM SCO-101, mean of assay duplicates, read-out: Kinase activity (percentage of DMSO control)
T19 construct: MRC Dundee (screening service)
Source text: as §1, §2, §3

CK1δ = biological target: T20, CK1δ (Homo sapiens, UniProt P48730); settings: 10 μM SCO-101, mean of assay duplicates, read-out: Kinase activity (percentage of DMSO control)
T20 construct: purchased MRC Dundee, Premier Screen (contract screening service)
Source text: as §1, §2, §3

p38b MAPK = p38b MAPK (Homo sapiens, UniProt Q15759); settings: 10 μM SCO-101, mean of assay duplicates, read-out: Kinase activity (percentage of DMSO control)
Sequence of p38b MAPK (Q15759 whole entry): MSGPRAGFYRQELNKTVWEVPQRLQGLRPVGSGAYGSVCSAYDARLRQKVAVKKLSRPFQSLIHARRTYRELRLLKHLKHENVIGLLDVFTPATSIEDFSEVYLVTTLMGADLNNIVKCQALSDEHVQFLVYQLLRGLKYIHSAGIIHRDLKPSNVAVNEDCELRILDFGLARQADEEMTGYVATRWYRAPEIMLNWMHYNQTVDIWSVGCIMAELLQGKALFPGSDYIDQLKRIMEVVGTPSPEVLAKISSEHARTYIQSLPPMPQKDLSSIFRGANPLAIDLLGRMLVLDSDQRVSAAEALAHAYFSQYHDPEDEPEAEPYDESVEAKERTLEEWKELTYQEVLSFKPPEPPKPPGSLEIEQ
Source text: as §1, §2, §3

ERK5 = biological target: T21, ERK5 (Homo sapiens, UniProt Q13164); settings: 10 μM SCO-101, mean of assay duplicates, read-out: Kinase activity (percentage of DMSO control)
T21 construct: MRC in Dundee (screening service)
Source text: as §1, §2, §3

MST4 = MST4 (Homo sapiens, UniProt Q9P289); settings: 10 μM SCO-101, mean of assay duplicates, read-out: Kinase activity (percentage of DMSO control)
Source text: as §1, §2, §3

HIPK2 = biological target: T22, HIPK2 (Homo sapiens, UniProt Q9H2X6); settings: 10 μM SCO-101, mean of assay duplicates, read-out: Kinase activity (percentage of DMSO control)
T22 construct: purchased MRC in Dundee (Premier Screen service)
Source text: as §1, §2, §3

IRAK1 = IRAK1 (Homo sapiens, UniProt P51617); settings: 10 μM SCO-101, mean of assay duplicates, read-out: Kinase activity (percentage of DMSO control)
Source text: as §1, §2, §3

PKD1 = PKD1 (Homo sapiens, UniProt Q15139); settings: 10 μM SCO-101, mean of assay duplicates, read-out: Kinase activity (percentage of DMSO control)
Source text: as §1, §2, §3

TAO1 = settings: 10 μM SCO-101, mean of assay duplicates
Source text: as §1, §2, §3

CHK2 = CHK2 (Homo sapiens, UniProt O96017); settings: 10 μM SCO-101, mean of assay duplicates, read-out: Kinase activity (percentage of DMSO control)
Source text: as §1, §2, §3

IR = biological target: T23, IR (Homo sapiens, UniProt P06213); settings: 10 μM SCO-101, mean of assay duplicates, read-out: Kinase activity (percentage of DMSO control)
T23 construct: MRC Dundee (screening service)
Source text: as §1, §2, §3

HIPK3 = HIPK3 (Homo sapiens, UniProt Q9H422); settings: 10 μM SCO-101, mean of assay duplicates, read-out: Kinase activity (percentage of DMSO control)
Source text: as §1, §2, §3

MARK2 = biological target: T24, MARK2 (Homo sapiens, UniProt Q7KZI7); settings: 10 μM SCO-101, mean of assay duplicates, read-out: Kinase activity (percentage of DMSO control)
T24 construct: MRC Dundee (screening service)
T24 sequence (Q7KZI7 whole entry, species assumed): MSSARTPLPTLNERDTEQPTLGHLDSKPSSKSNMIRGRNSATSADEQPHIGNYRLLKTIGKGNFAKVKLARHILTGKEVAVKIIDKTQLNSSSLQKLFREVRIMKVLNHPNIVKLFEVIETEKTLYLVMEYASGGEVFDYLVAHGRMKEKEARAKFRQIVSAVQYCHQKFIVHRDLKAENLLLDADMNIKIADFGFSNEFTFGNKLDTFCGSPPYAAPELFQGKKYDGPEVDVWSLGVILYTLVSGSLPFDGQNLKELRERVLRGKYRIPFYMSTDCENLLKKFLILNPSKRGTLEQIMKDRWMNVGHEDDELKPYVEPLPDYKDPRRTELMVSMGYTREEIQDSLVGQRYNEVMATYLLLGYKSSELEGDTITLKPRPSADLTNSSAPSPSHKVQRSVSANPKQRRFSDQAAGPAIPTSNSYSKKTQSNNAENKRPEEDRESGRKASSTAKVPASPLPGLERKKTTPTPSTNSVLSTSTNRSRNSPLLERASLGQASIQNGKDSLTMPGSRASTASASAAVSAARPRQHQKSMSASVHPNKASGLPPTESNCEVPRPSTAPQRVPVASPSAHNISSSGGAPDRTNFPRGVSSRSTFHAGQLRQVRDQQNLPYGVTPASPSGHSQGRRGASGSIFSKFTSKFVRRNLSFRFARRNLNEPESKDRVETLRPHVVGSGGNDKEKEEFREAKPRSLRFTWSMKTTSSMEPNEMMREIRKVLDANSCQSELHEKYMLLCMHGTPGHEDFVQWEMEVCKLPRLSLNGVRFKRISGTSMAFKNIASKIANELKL
Source text: as §1, §2, §3

MLK1 = biological target: T25, MLK1 (Homo sapiens, UniProt P80192); settings: 10 μM SCO-101, mean of assay duplicates, read-out: Kinase activity (percentage of DMSO control)
T25 construct: MRC Dundee (screening service)
Source text: as §1, §2, §3

O=C(Nc1cc(C(F)(F)F)cc(C(F)(F)F)c1)Nc1ccc(Br)cc1-c1nnn[nH]1 [SCO-101]
remaining activity at 10 µM (FGF-R1): 123%
remaining activity at 10 µM (TSSK1): 83%
remaining activity at 10 µM (GSK3b): 99%
remaining activity at 10 µM (MAP4K5): 108%
remaining activity at 10 µM (EPH-A4): 101%
remaining activity at 10 µM (RSK2): 64%
remaining activity at 10 µM (ULK1): 114%
remaining activity at 10 µM (p38g MAPK): 110%
remaining activity at 10 µM (TLK1): 122%
remaining activity at 10 µM (EPH-B3): 114%
remaining activity at 10 µM (MST3): 135%
remaining activity at 10 µM (GCK): 92%
remaining activity at 10 µM (EIF2AK3): 103%
remaining activity at 10 µM (EPH-B1): 124%
remaining activity at 10 µM (CDK9-Cyclin T1): 104%
remaining activity at 10 µM (BTK): 78%
remaining activity at 10 µM (MARK4): 90%
remaining activity at 10 µM (ZAP70): 99%
remaining activity at 10 µM (MKK2): 94%
remaining activity at 10 µM (Aurora A): 94%
remaining activity at 10 µM (TAK1): 107%
remaining activity at 10 µM (ULK2): 95%
remaining activity at 10 µM (CK1δ): 107%
remaining activity at 10 µM (p38b MAPK): 115%
remaining activity at 10 µM (ERK5): 90%
remaining activity at 10 µM (MST4): 117%
remaining activity at 10 µM (HIPK2): 139%
remaining activity at 10 µM (IRAK1): 115%
remaining activity at 10 µM (PKD1): 122%
Kinase activity (percentage of DMSO control) (TAO1): 116 percentage of DMSO control
remaining activity at 10 µM (CHK2): 114%
remaining activity at 10 µM (IR): 98%
remaining activity at 10 µM (HIPK3): 121%
remaining activity at 10 µM (MARK2): 100%
remaining activity at 10 µM (MLK1): 98%
